Source: US20200197320A1, “DRUG CARRIER AND DRUG DELIVERY SYSTEM THEREOF” (NATIONAL TSING HUA UNIVERSITY, priority 2018, published 2020)

Test system: MDA-MB-231 human breast cancer cells
Assay: Material cytotoxicity by MTT assay
Details: under the condition of the present disclosure, including products after UV irradiation
Procedure: Then the drug delivery systems of Example 1 with different concentrations are tested for their cytotoxicity. […] The MDA-MB-231 human breast cancer cells are treated with 0.1, 1, 2, 5, 10 and 20 μg/mL of the drug delivery system of Example 1 for 6 hours, respectively, and then further incubated for another 24 hours. The cell viability is measured by the MTT assay.

Structure (SMILES): OCc1ccc2ccc3cccc4ccc1c2c34 [pyrenemethanol]
- harm to the cells: not harmful
